Results from patent US8207174B2, “Aryloxypropanolamines, methods of preparation therof and use of aryloxypropanolamines as medicaments” (4SC AG, priority 2007, dated 2012).

Tests used:
[1] = system: β3 over β1- and β2-adrenoceptors; assay: Overall selectivity A×B from radioligand binding (β1, β2, β3) and functional β3 assay; design: species or system human; details: A=Ki(β1)/Ki(β3); B=Ki(β2)/EC50(β3); overall = A multiplied by B
Procedure: Selectivity for β3 over the other two adrenoceptors was thus defined as:
A) selectivity factor for β3 over β1=Ki(β1)/Ki(β3);
B) selectivity factor for β3 over β2=Ki(β2)/EC50(β3);
overall selectivity was determined as factor A) multiplied by factor B)
Membrane preparations containing human β1-, β2- or β3-adrenergic receptors were purchased from Euroscreen.
Determination of IC50 deployed a competition binding experiment where an unlabeled test compound competes with the radioligand for the receptor's binding site.
For competition binding experiments 0.1 μg/μL β3 membranes were pre-incubated with the respective compounds at r.t. for 10 minutes. The binding buffer consisted of 25 mM Hepes, 1 mM EDTA, 0.5% BSA pH 7.4. All incubation steps were done in a 96 well Masterblock PP/1 mL (Greiner), the total assay volume was 100 μL.
The reaction mixtures were transferred to a 96 well UnifilterGF/B filter plate (Millipore), pre-soaked in 0.5% BSA, using the PerkinElmer filtermate. Each well was washed with 8×1 mL ice cold binding buffer supplemented with 0.5M NaCl. The GF/B filter plates were dried for 5 min on the filtermate. To each well, 50 μL OptiPhase scintillation cocktail (PerkinElmer) was added and incubated at r.t. for 10 min.
Bound radioactivity was quantified in a Wallac-Microbeta plate reader (PerkinElmer). Each well was counted for 2 min in top-count mode.
For competition binding experiments 0.25 μg/well β1 or 0.5 μg/well β2 membranes were pre-incubated with the respective compounds at r.t. for 10 minutes. […] All incubation steps were done in a 96 well Masterblock PP/1 mL (Greiner), the total assay volume was 250 μL.
The reaction mixtures were transferred to a 96 well UnifilterGF/B filter plate (Millipore), pre-soaked in 0.5% PEI, using the PerkinElmer filtermate, Each well was wash with 8×1 mL ice cold binding buffer. The GF/B filter plates were dried for 5 min on the filtermate. To each well 50 μL OptiPhase scintillation cocktail (PerkinElmer) was added and incubated at r.t. for 10 min.
Bound radioactivity was quantified in a Wallac-Microbeta plate reader (PerkinElmer). Each well was counted for 2 min in top-count mode

[2] = target: T1, human recombinant adrenergic β3 receptor (Homo sapiens, UniProt P13945); assay: Cyclic AMP accumulation assay (HTRF), agonist mode; format: cell-based; details: agonistic activity at β3-adrenoceptor, CHO-K1 β3 cells, cAMP
T1 construct: host or cells: CHO-K1
Procedure: (Cyclic Amp Accumulation Assay)
Functional response of cells (agonistic or antagonistic) to the test compounds was tested by measurement of cyclic AMP formation. Therefore cyclic AMP was quantitatively determined by HTRF® (Homogeneous Time-Resolved Fluorescence) technology (Cisbio International) using a stable cell line CHO-K1 β3 expressing the human recombinant adrenergic β3 receptor (Euroscreen).
The CHO-K1 β3 cell line was maintained in Ham's F12 medium containing 10% fetal bovine serum, 400 μg/ml geneticin (G418), 100 U/mL penicillin and 100 μg/mL streptomycin (all PAA) at 37° C. and 5% CO2. Cells in mid-log phase, grown in media without antibiotics during 18 h prior to the experiment, were detached by gentle flushing with 2 ml PBS-EDTA pH 7.5 (Cambrex) and resuspended in 8 mL of medium without antibiotics. Cells were then counted, centrifuged in a 30 mL PP tube (Corning) at 2000 rpm for 1 min and resuspended in HBSS/20 mM HEPES/0.05% BSA buffer (all PAA) including 1 mM IBMX (Sigma). Cells were then dispensed at 3.2×10^5−3.6×10^5 cells/well in black 96-half well microtiter plates (Corning). After addition of the test compounds for dose response curves the plates were incubated for 10 min at room temperature.
cAMP HTRF® Kit reagents were then added as recommended by the manufacturer and plates were sealed with plate sealer. After 1 hour of incubation the plates were read in a Tecan Ultra Reader using the “multilabeling” option of Tecan Xfluor4 software with the following parameters, excitation filter 320 nm, mirror dichroic2, lag time 150 μs, integration time 500 μs, number of flashes 10, optimal gain and z-position. For measurement 1 an emission filter at 620 nm and for measurement 2 an emission filter at 665 nm was chosen.
EC50 value calculation for the agonist assay and IC50 value calculation for the antagonist assay, respectively, were performed with the MS Excel Solver function based on a four-parameter fit.

T1 sequence (P13945 whole entry): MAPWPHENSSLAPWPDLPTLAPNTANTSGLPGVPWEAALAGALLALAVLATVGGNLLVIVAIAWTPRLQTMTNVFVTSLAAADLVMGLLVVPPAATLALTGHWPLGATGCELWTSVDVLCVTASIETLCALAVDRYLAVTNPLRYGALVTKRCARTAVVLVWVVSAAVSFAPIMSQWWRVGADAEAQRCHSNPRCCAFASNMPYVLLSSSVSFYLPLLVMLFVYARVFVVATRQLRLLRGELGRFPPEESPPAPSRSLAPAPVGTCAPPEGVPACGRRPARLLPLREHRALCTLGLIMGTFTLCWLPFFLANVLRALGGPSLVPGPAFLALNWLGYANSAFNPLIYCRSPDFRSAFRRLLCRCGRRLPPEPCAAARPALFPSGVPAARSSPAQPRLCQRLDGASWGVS

SMILES | selectivity [A x B] [1] | EC50 [2]
Cc1nc(N2CCC(NCC(O)COc3ccc(O)cc3)CC2)c2ccsc2n1 (stereo not drawn) [Example 5, 4-(2-hydroxy-3-(1-(2-methylthieno[2,3-d]pyrimidin-4-yl)piperidin-4-ylamino)propoxy)phenol] | ++ (A×B=101-1000) | 11 to 100 nM
Cc1cc(C)nc(N2CCC(NCC(O)COc3ccc(O)cc3)CC2)n1 (stereo not drawn) [Example 8, 4-(3-(1-(4,6-dimethylpyrimidin-2-yl)piperidin-4-ylamino)-2-hydroxypropoxy)phenol] | 0 (A×B<10) | 11 to 100 nM
CN(CC(O)COc1ccc(O)cc1)C1CCN(c2ncnc3scc(-c4ccc(F)cc4)c23)CC1 (stereo not drawn) [Example 11, 4-(3-((1-(5-(4-fluorophenyl)thieno[2,3-d]pyrimidin-4-yl)piperidin-4-yl)(methyl)amino)-2-hydroxypropoxy)phenol] | 0 (A×B<10) | > 100 nM
CCOC(=O)c1cc(OCC(O)CNC2CCN(c3ncnc4scc(-c5ccccc5)c34)CC2)ccc1O (stereo not drawn) [Example 12] | 0 (A×B<10) | > 100 nM
OCc1cc(OCC(O)CNC2CCN(C3=NCNc4scc(-c5ccccc5)c43)CC2)ccc1O (stereo not drawn) [Example 14, 4-(2-hydroxy-3-(1-(5-phenyl-1,2-dihydrothieno[2,3-d]pyrimidin-4-yl)piperidin-4-ylamino)propoxy)-2-(hydroxymethyl)phenol] | +++ (A×B>1000) | 0.01 to 0.99 nM
CCOC(=O)c1cc(OCC(O)CNC2CCN(c3ncnc4scc(C)c34)CC2)ccc1O (stereo not drawn) [Example 17, ethyl 2-hydroxy-5-(2-hydroxy-3-(1-(5-methylthieno[2,3-d]pyrimidin-4-yl)piperidin-4-ylamino)propoxy)benzoate] | 0 (A×B<10) | > 100 nM
Cc1nc(N2CCC(NCC(O)COc3ccc(O)c(CO)c3)CC2)c2ccsc2n1 (stereo not drawn) [Example 19, 4-(2-hydroxy-3-(1-(2-methylthieno[2,3-d]pyrimidin-4-yl)piperidin-4-ylamino)propoxy)-2-(hydroxymethyl)phenol] | +++ (A×B>1000) | 1 to 10 nM
CCOC(=O)c1cc(OCC(O)CNC2CCN(c3ncnc4sc(-c5ccccc5)c(C)c34)CC2)ccc1O (stereo not drawn) [Example 20, ethyl 2-hydroxy-5-(2-hydroxy-3-(1-(5-methyl-6-phenylthieno[2,3-d]pyrimidin-4-yl)piperidin-4-ylamino)propoxy)benzoate] | 0 (A×B<10) | > 100 nM
CCOC(=O)c1cc(OCC(O)CNC2CCN(c3ncnc4ccsc34)CC2)ccc1O (stereo not drawn) [Example 22, ethyl 2-hydroxy-5-(2-hydroxy-3-(1-(thieno[3,2-d]pyrimidin-4-yl)piperidin-4-ylamino)propoxy)benzoate] | 0 (A×B<10) | > 100 nM
Cc1cc(C)nc(N2CCC(NCC(O)COc3ccc(O)c(CO)c3)CC2)n1 (stereo not drawn) [Example 24, 4-(3-(1-(4,6-dimethylpyrimidin-2-yl)piperidin-4-ylamino)-2-hydroxypropoxy)-2-(hydroxymethyl)phenol] | +++ (A×B>1000) | 1 to 10 nM
CCOC(=O)c1cc(OCC(O)CNC2CCN(c3ncnc4scc(-c5cccs5)c34)CC2)ccc1O (stereo not drawn) [Example 25, ethyl 2-hydroxy-5-(2-hydroxy-3-(1-(5-(thiophen-2-yl)thieno[2,3-d]pyrimidin-4-yl)piperidin-4-ylamino)propoxy)benzoate] | 0 (A×B<10) | > 100 nM

Continued, values first:

selectivity [A x B] [1] | EC50 [2] | SMILES
0 (A×B<10) | > 100 nM | COC(=O)c1ccc(OCC(O)CNC2CCN(c3ncnc4scc(-c5ccccc5)c34)CC2)cc1O (stereo not drawn) [Example 28, methyl 2-hydroxy-4-(2-hydroxy-3-(1-(5-phenylthieno[2,3-d]pyrimidin-4-yl)piperidin-4-ylamino)propoxy)benzoate]
+ (A×B=10-100) | 1 to 10 nM | CCOC(=O)c1cc(O)ccc1OCC(O)CNC1CCN(c2ncnc3scc(-c4ccccc4)c23)CC1 (stereo not drawn) [Example 32, ethyl 5-hydroxy-2-(2-hydroxy-3-(1-(5-phenylthieno[2,3-d]pyrimidin-4-yl)piperidin-4-ylamino)propoxy)benzoate]
0 (A×B<10) | > 100 nM | COC(=O)c1ccc(O)cc1OCC(O)CNC1CCN(c2ncnc3scc(-c4ccccc4)c23)CC1 (stereo not drawn) [Example 34, methyl 4-hydroxy-2-(2-hydroxy-3-(1-(5-phenylthieno[2,3-d]pyrimidin-4-yl)piperidin-4-ylamino)propoxy)benzoate]
0 (A×B<10) | 11 to 100 nM | Cc1csc2ncnc(N3CCC(NCC(O)COc4cccc(CO)c4)CC3)c12 (stereo not drawn) [Example 37, 1-(3-(hydroxymethyl)phenoxy)-3-(1-(5-methylthieno[2,3-d]pyrimidin-4-yl)piperidin-4-ylamino)propan-2-ol]
0 (A×B<10) | > 100 nM | Cc1nc(N2CCC(NCC(O)COc3cccc(CO)c3)CC2)c2ccsc2n1 (stereo not drawn) [Example 38, 1-(3-(hydroxymethyl)phenoxy)-3-(1-(2-methylthieno[2,3-d]pyrimidin-4-yl)piperidin-4-ylamino)propan-2-ol]
0 (A×B<10) | > 100 nM | Cc1c(-c2ccccc2)sc2ncnc(N3CCC(NCC(O)COc4cccc(CO)c4)CC3)c12 (stereo not drawn) [Example 39, 1-(3-(hydroxymethyl)phenoxy)-3-(1-(5-methyl-6-phenylthieno[2,3-d]pyrimidin-4-yl)piperidin-4-ylamino)propan-2-ol]
+ (A×B=10-100) | 11 to 100 nM | OCc1cccc(OCC(O)CNC2CCN(c3ncnc4scc(-c5ccc(F)cc5)c34)CC2)c1 (stereo not drawn) [Example 40, 1-(1-(5-(4-fluorophenyl)thieno[2,3-d]pyrimidin-4-yl)piperidin-4-ylamino)-3-(3-(hydroxymethyl)phenoxy)propan-2-ol]
+ (A×B=10-100) | > 100 nM | CN(CC(O)COc1cccc(CO)c1)C1CCN(c2ncnc3scc(-c4ccccc4)c23)CC1 (stereo not drawn) [Example 41, 1-(3-(hydroxymethyl)phenoxy)-3-(methyl(1-(5-phenylthieno[2,3-d]pyrimidin-4-yl)piperidin-4-yl)amino)propan-2-ol]
0 (A×B<10) | > 100 nM | Cc1c(-c2ccccc2)sc2ncnc(N3CCC(N(C)CC(O)COc4cccc(CO)c4)CC3)c12 (stereo not drawn) [Example 42, 1-(3-(hydroxymethyl)phenoxy)-3-(methyl(1-(5-methyl-6-phenylthieno[2,3-d]pyrimidin-4-yl)piperidin-4-yl)amino)propan-2-ol]
+ (A×B=10-100) | > 100 nM | OCc1ccc(OCC(O)CNC2CCN(c3ncnc4scc(-c5ccc(F)cc5)c34)CC2)cc1 (stereo not drawn) [Example 44, 1-(1-(5-(4-fluorophenyl)thieno[2,3-d]pyrimidin-4-yl)piperidin-4-ylamino)-3-(4-(hydroxymethyl)phenoxy)propan-2-ol]
